Entries after “also recorded” stand apart in the source; their conditions may differ.
Tests used:
males with ADHD = test: Attention-Deficit Disorder case studies (Example 10); type: in vivo, human; conditions: for improvement of ADHD behavior and attention: single case studies (males)
Experimental: To assess the therapeutic benefit of the novel cotreatment formulations of the invention with Attention-Deficit Disorders, three ongoing case studies are being conducted, one focused on the use of stimulants and the other based on “nutriceuticals.”
A person with severe uncontrolled ADHD has had serious problems with their inappropriate behaviors, emotions, and attitudes, both at school and at home, for more than 8 years. […] NAC (600 mg, twice daily) was added to the ongoing medication. […] The young person was able to sit quietly for longer periods of time and was clearly more cooperative and socially appropriate. […] Increased improvement has been observed over the past month, and the cotreatment formulation is being continued.
A person with moderate ADHD has had difficulties paying attention at school and cooperating at home. They have never been given prescription medications for the problem, and behavioral interventions have not been successful. […] Then, NAC (600 mg, twice daily), magnesium sulfate (500 mg, twice daily), and ginkgo biloba (120 mg, once daily) were added to the ALC. […] Progress has been steadily improving, using this novel cotreatment formulation during this 3 week trial, which is ongoing.
A person with severe ADHD has had problems in all aspects of their life due to this disorder. Despite above average intelligence, they were unable to complete high school. After dropping out of school, they were able to earn a GED. Over time, they were unable to hold regular employment. […] They will continue this co-treatment formulation, given its obvious benefits.

Healthy volunteers = test: Cold-pressor induced pain study (Example 8A); type: in vivo, human; conditions: 12 subjects, blinded, within-subject
Experimental: In addition to the hot-water finger immersion studies described above, two Jeio Tech cold-pressor testing units were purchased since this methodology represents the state-of-the art in induced pain research.
Following several preliminary multi-site trials using a wide variety of agents, doses, and formulations, a cold-pressor induced pain study was conducted in order to determine the impact of specific agents on the experience of pain threshold and tolerance. Healthy volunteers were recruited who were not taking any relevant medications or supplements, resulting in a total of 12 subjects (7 men, 5 women; ages 18-86). During the initial phase of this study, the following agents and doses were administered to subjects and pain threshold and tolerance latencies were assessed. […] Subjects were blinded as to each condition. Active agents were compared to each subject's baseline and placebo latencies, using a within-subject design. […]

humans = test: Hot-water finger-immersion induced pain trials (Example 1); type: in vivo, human; conditions: for undesirable side effects, first phase: 18 subjects, rolipram 50 μg, forskolin 200 mg, magnesium sulfate 2 g/5 g, caffeine 200 mg, each given within two-agent formulations; for side effects / complaints, second phase: 60 subjects, caffeine 50 mg, theophylline 300 mg, ULDN 5 μg, magnesium sulfate 750 mg, alone or combined; for pain thresholds and tolerance as compared to baseline latencies: index finger in 130° F. water, single dose, not blinded as to condition
Experimental: For these trials, a hot-water finger-immersion pain paradigm was used, measuring both pain threshold and tolerance. The index finger of the non-dominant hand was submerged in 130° F. water, and the time to the experience of pain (threshold) and the need to withdraw (tolerance) were measured. Baseline scores were compared to those obtained under experimental conditions. Experimental conditions were not blinded for this study.
For the preliminary part of this study, 18 subjects (10 males, 8 females; ages 27-86) were given each of the following single-dose formulations on separate days, to determine the best doses for pain reduction and side-effect profiles:
The same induced pain paradigm was used for the second phase of this study. 60 subjects (38 males, 22 females, ages 18-86), including all of the subjects in the first phase of the study, participated in the study. All subjects were administered each of the following formulations in a single dose, on separate days; while 18 of these subjects (10 males, 8 females) were given these formulations using a twice daily administration over the course of 3 consecutive days. The following formulations were administered to each subject to assess the effect of each agent, as compared to baseline, as well as the synergistic impact of co-treatment: […]

[1] = tested on: patients in psychotherapy suffering from various Distress Dysfunction conditions; test: 10 month trial, agents alone vs combined, 19 psychotherapy patients (Example 5); conditions: for therapeutic benefits on Distress Dysfunction symptoms: 19 patients, 2 weeks per agent or formulation, agents not identified to patients
Experimental: To determine the relative benefits of administering agents alone as compared to their combined synergistic benefits, a trial was conducted over a 10 month period with 19 patients in psychotherapy suffering from various Distress Dysfunction conditions, including anxiety, obsessive-compulsive disorders, depression, drug and alcohol addictions, behavioral addictions, psychogenic and neuropathic pain, eating disorders, and sexual dysfunctions.
Over the course of 8 weeks, each patient was administered all of the individual agents. During the next 8 weeks, each patient rotated through the following formulations, each given for a 2 week period: […]
All patients already on an SSRI or SNRI continued on this medication in combination with ULDN.

subjects = test: Hot-water finger-immersion pain threshold/tolerance, five subjects (Example 4); type: in vivo, human; conditions: separate testing sessions
[2] = tested on: outpatient psychotherapy patients with various forms of Distress Dysfunction; test: Clinical case studies, outpatient psychotherapy patients (Example 8B); type: in vivo, human; conditions: 5 or 125 μg once daily within formulations
Experimental: All treatment was unblinded, and explained as novel formulations for Distress Dysfunction. […] Synergistic Enhancers were often included in the formulations, particularly SSRI and SNRI medications that the patients were typically taking prior to adding the experimental formulations (about 25% of patients). For those patients already on an SSRI or SNRI, the following daily doses were used, once the patient was stabilized on the co-treatment formulation: escitalopram (10 mg, once daily), fluoxetine (20 mg, once daily), citalopram (20 mg, once daily), or venlafaxine (75 mg, once daily). For most patients, this was either the same or lower dose than previously prescribed. If the patient was not already on an SSRI or SNRI, one or more Synergistic Enhancers were added to the formulation for more serious conditions, including 5HTP (50 mg, twice daily), SAMe (200 mg, once daily), PharmaGABA (200 mg, once daily), and tyrosine (500 mg, once daily) (about 18% of patients). Ten pain patients began the treatment program using a prescription narcotic pain medication. […] As an alternative to narcotic pain medications, NSAIDs, especially white willow bark (250 mg, twice daily) were added to the formulation (about 10% of patients). […]

COC(=O)C(c1ccccc1)C1CCCCN1 (centres unmarked) [methylphenidate]
side effects (males with ADHD; single case studies): produced mild restlessness, sleep difficulties, and reduced appetite; also recorded: several undesirable side-effects, including insomnia, anorexia, and agitation | improvement of ADHD behavior and attention (males with ADHD): only modest improvements; also recorded: almost no benefit

CC(C)Cc1ccc(C(C)C(=O)O)cc1 (centres unmarked) [ibuprophen]
pain threshold and tolerance latencies vs baseline and placebo, agents administered alone (Healthy volunteers): no more effective than placebo in the cold pressor paradigm

C=C[C@@]1(C)CC(=O)[C@]2(O)[C@@]3(C)[C@@H](O)CCC(C)(C)[C@@H]3[C@H](O)[C@H](OC(C)=O)[C@@]2(C)O1 [Forskolin]
undesirable side effects, first phase (humans): produced mild agitation for several subjects

COc1cccc(C2(O)CCCCC2CN(C)C)c1 (centres unmarked) [Tramadol, tramadol]
pain threshold and tolerance latencies vs baseline and placebo, agents administered alone (Healthy volunteers): did not generally exhibit analgesia on the cold pressor

O=C(Nc1c(Cl)cncc1Cl)c1ccc(OC(F)F)c(OCC2CC2)c1 [roflumilast]
therapeutic benefits on Distress Dysfunction symptoms ([1]; once daily): no therapeutic benefits were reported or observed | increased distress symptoms ([1]; human, in vivo): at least half of the patients reported some degree of increased distress symptoms | pain threshold and tolerance latencies vs baseline and placebo, agents administered alone (Healthy volunteers): showed clear hyperalgesic effects when administered alone; also recorded: tended to result in shorter pain tolerance latencies

N[C@@H](CCC(=O)O)C(=O)O [glutamic acid]
pain threshold and tolerance latencies vs baseline and placebo, agents administered alone (Healthy volunteers): showed clear hyperalgesic effects when administered alone; also recorded: tended to result in shorter pain tolerance latencies

CC(=O)O[C@H](CC(=O)[O-])C[N+](C)(C)C [acetyl-L-carinitine]
improvement of ADHD behavior and attention (males with ADHD): no observable benefits

Cn1c(=O)c2c(ncn2C)n(C)c1=O [caffeine]
undesirable side effects, first phase (humans): produced mild agitation for several subjects | side effects / complaints, second phase (humans): complained of these symptoms when given these drugs alone | pain thresholds and tolerance as compared to baseline latencies (humans): trend toward increased pain sensitivity (hyperalgesia) | increased distress symptoms ([1]; agent administered alone, once daily, 2 weeks): at least half of the patients reported some degree of increased distress symptoms | pain threshold and tolerance latencies vs baseline and placebo, agents administered alone (Healthy volunteers): tended to result in shorter pain tolerance latencies

O=S(=O)([O-])[O-].[Mg+2] [magnesium sulfate]
undesirable side effects, first phase (humans): produced mild queasy feelings for several subjects | side effects / complaints, second phase (humans): had neither benefit nor side effects

CC(=O)Oc1ccccc1C(=O)O [aspirin]
increase in pain threshold/tolerance (over baseline) (subjects): showed no change in pain threshold when administered alone | pain threshold and tolerance latencies vs baseline and placebo, agents administered alone (Healthy volunteers): no more effective than placebo in the cold pressor paradigm

CC(=O)Nc1ccc(O)cc1 [acetaminophen]
increase in pain threshold/tolerance (over baseline) (subjects): in order of greatest pain relief, was (3), then (2) then (1) | therapeutic benefits on Distress Dysfunction symptoms ([1]; once daily): no therapeutic benefits were reported or observed | maintenance treatment, remaining six months of the study ([1]; each patient on the formulation that worked best): used effectively by four pain patients | increased distress symptoms ([1]; human, in vivo): at least half of the patients reported some degree of increased distress symptoms | pain threshold and tolerance latencies vs baseline and placebo, agents administered alone (Healthy volunteers): no more effective than placebo in the cold pressor paradigm

O=C1CC[C@@]2(O)[C@H]3Cc4ccc(O)c5c4[C@@]2(CCN3CC2CC2)[C@H]1O5 [ULDN, naltrexone]
side effects / complaints, second phase (humans): had neither benefit nor side effects | therapeutic benefits on Distress Dysfunction symptoms ([1]; once daily): nearly half of the patients experienced no effect from ULDN alone | improvement in symptoms in patients on ongoing SSRI or SNRI medication ([1]; ULDN 5 μg added, patients on Lexapro, Prozac, Paxil or Effexor): 10 patients had dramatic improvement in their symptoms | consistency of benefit by naltrexone dose [2]: the benefits from using the relatively higher dose (125 micrograms) were more consistent within and among patients

COc1ccc2c3c1O[C@H]1C(=O)CC[C@@]4(O)[C@@H](C2)N(C)CC[C@]314 [oxycodone (5 mg), oxycodone]
pain threshold and tolerance latencies vs baseline and placebo, agents administered alone (Healthy volunteers): consistently showed this effect | pain threshold and tolerance latencies vs baseline and placebo, agents administered alone (Healthy volunteers; listed as lower dose oxycodone): did not generally exhibit analgesia on the cold pressor

Cn1c(=O)c2[nH]cnc2n(C)c1=O [theophylline]
side effects / complaints, second phase (humans): complained of these symptoms when given these drugs alone | pain thresholds and tolerance as compared to baseline latencies (humans): trend toward increased pain sensitivity (hyperalgesia) | pain threshold and tolerance latencies vs baseline and placebo, agents administered alone (Healthy volunteers): tended to result in shorter pain tolerance latencies

COc1ccc(C2CNC(=O)C2)cc1OC1CCCC1 (centres unmarked) [Rolipram, rolipram]
undesirable side effects, first phase (humans): produced a queasy sensation for several of the subjects | side effects (humans; one subject took 250 μg of rolipram): experienced nausea, vomiting, and diarrhea

— patent US8741319B2, “Methods and compositions for treating anxiety disorders or symptoms thereof” (Pondera Biotechnologies Inc., priority 2009, dated 2014)
